Columns and labels:
IRAK4 = IRAK4 (Homo sapiens (Human), UniProt Q9NWZ3); experiment: IRAK4 Inhibition Assay; type: biochemical; conditions: ATP 500 μM; IRAK4 0.6 nM
Summary of the method: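 Mobility-shift readout: phosphorylated and unphosphorylated fluorescent peptide (1.5 μM) resolved by electrophoresis after a 60 min room-temperature reaction stopped with EDTA. Reaction holds 0.6 nM IRAK4, 500 μM ATP and 1.6% DMSO in HEPES pH 7.2/MgCl2/Brij 35/DTT buffer; percent inhibition set against vehicle and no-enzyme controls.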

[1] = test system: Human whole blood stimulated with a TLR2 agonist (lipoteichoic acid), IL-6 levels; experiment: IRAK4 Whole Blood Assay; type: cell-based; conditions: Homo sapiens, lipoteichoic acid 10 μg/mL
Summary of the method: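 ACD-A-anticoagulated human whole blood was preincubated with compounds for 60 min at 37 °C under 5% CO2. It was then stimulated with 10 μg/mL lipoteichoic acid (final) in RPMI for 5 h. IL-6 in plasma supernatants was measured by flow cytometry bead assay.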

Chain of IRAK4 (Q9NWZ3 whole entry, species assumed): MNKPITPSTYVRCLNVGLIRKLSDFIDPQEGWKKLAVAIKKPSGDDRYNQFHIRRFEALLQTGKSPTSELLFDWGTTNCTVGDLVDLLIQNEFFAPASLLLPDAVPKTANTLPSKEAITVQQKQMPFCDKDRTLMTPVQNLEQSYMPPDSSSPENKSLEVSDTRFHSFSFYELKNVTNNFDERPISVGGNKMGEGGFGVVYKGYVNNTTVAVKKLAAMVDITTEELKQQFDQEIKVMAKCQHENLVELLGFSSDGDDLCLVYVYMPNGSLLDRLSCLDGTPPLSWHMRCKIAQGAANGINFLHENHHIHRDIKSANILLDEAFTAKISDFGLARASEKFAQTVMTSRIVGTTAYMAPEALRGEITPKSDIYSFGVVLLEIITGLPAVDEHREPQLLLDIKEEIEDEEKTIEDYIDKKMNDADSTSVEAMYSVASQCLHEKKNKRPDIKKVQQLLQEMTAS

SMILES | IC50 (IRAK4) | EC50 [1]
CC(C)Cn1cnc(-c2cnc(-n3ncc4cc(C#N)cnc43)cc2NC(C)C)c1 [Example 221, 1-(5-(1-isobutyl-1H-imidazol-4-yl)-4-(isopropylamino)pyridin-2-yl)-1H-pyrazolo[3,4-b]pyridine-5-carbonitrile] | 12 nM | 2210 nM
CC(C)Nc1cc(-n2ncc3cc(C#N)cnc32)ncc1-c1cn(C(C)C)cn1 [Example 225, 1-(5-(1-isopropyl-1H-imidazol-4-yl)-4-(isopropylamino)pyridin-2-yl)-1H-pyrazolo[3,4-b]pyridine-5-carbonitrile] | 17 nM | 5590 nM
CCCn1cc(-c2cnc(-n3ncc4cc(C#N)cnc43)cc2Nc2cnn(CC(F)F)c2)cn1 [Example 256, 1-(4-((1-(2,2-difluoroethyl)-1H-pyrazol-4-yl)amino)-5-(1-propyl-1H-pyrazol-4-yl)pyridin-2-yl)-1H-pyrazolo[3,4-b]pyridine-5-carbonitrile] | 14 nM | 600 nM
CCCc1cn(-c2cnc(-n3ncc4cc(C#N)c(N)nc43)cc2NC2COC2)nn1 [Example 281, 6-amino-1-(4-(oxetan-3-ylamino)-5-(4-propyl-1H-1,2,3-triazol-1-yl)pyridin-2-yl)-1H-pyrazolo[3,4-b]pyridine-5-carbonitrile] | 7 nM | 380 nM
CCCc1cn(-c2cnc(-n3ncc4cc(Cl)cnc43)cc2NC(C)C)nn1 [Example 282, 2-(5-chloro-1H-pyrazolo[3,4-b]pyridin-1-yl)-N-isopropyl-5-(4-propyl-1H-1,2,3-triazol-1-yl)pyridin-4-amine] | 13 nM | 2260 nM
CCCc1cn(-c2cnc(-n3ncc4cc(C#N)cnc43)cc2NC2CCOCC2)nn1 [Example 283, 1-(5-(4-propyl-1H-1,2,3-triazol-1-yl)-4-((tetrahydro-2H-pyran-4-yl)amino)pyridin-2-yl)-1H-pyrazolo[3,4-b]pyridine-5-carbonitrile] | 7 nM | 1280 nM
CCCc1cn(-c2cnc(-n3cnc4cc(C#N)cnc43)cc2N[C@@H](C)CO)nn1 [Example 285, (S)-3-(4-((1-hydroxypropan-2-yl)amino)-5-(4-propyl-1H-1,2,3-triazol-1-yl)pyridin-2-yl)-3H-imidazo[4,5-b]pyridine-6-carbonitrile] | 17 nM | 6400 nM
CCC(O)Cc1cn(-c2cnc(-n3ncc4cc(C#N)cnc43)cc2NC(C)C)nn1 (centres unmarked) [Example 303, 1-(5-(4-(2-hydroxybutyl)-1H-1,2,3-triazol-1-yl)-4-(isopropylamino)pyridin-2-yl)-1H-pyrazolo[3,4-b]pyridine-5-carbonitrile] | 16 nM | 1180 nM
CC(C)Cc1cn(-c2cnc(-n3ncc4cc(C#N)cnc43)cc2NC(C)C)nn1 [Example 305, 1-(5-(4-isobutyl-1H-1,2,3-triazol-1-yl)-4-(isopropylamino)pyridin-2-yl)-1H-pyrazolo[3,4-b]pyridine-5-carbonitrile] | 10 nM | 550 nM
CC(C)CCc1cn(-c2cnc(-n3ncc4cc(C#N)cnc43)cc2NC(C)C)nn1 [Example 307, 1-(5-(4-isopentyl-1H-1,2,3-triazol-1-yl)-4-(isopropylamino)pyridin-2-yl)-1H-pyrazolo[3,4-b]pyridine-5-carbonitrile] | 3 nM | 580 nM
CCCCc1cn(-c2cnc(-n3ncc4cc(C#N)cnc43)cc2NC(C)C)nn1 [Example 320, 1-(5-(4-butyl-1H-1,2,3-triazol-1-yl)-4-(isopropylamino)pyridin-2-yl)-1H-pyrazolo[3,4-b]pyridine-5-carbonitrile] | 3 nM | 930 nM
CC(C)Nc1cc(-n2ncc3cc(C#N)cnc32)ncc1-n1cc(CCC#N)nn1 [Example 321, 1-(5-(4-(2-cyanoethyl)-1H-1,2,3-triazol-1-yl)-4-(isopropylamino)pyridin-2-yl)-1H-pyrazolo[3,4-b]pyridine-5-carbonitrile] | 18 nM | 570 nM
CC(C)Nc1cc(-n2ncc3cc(C#N)cnc32)ncc1-n1cc(CCCC#N)nn1 [Example 323, 1-(5-(4-(3-cyanopropyl)-1H-1,2,3-triazol-1-yl)-4-(isopropylamino)pyridin-2-yl)-1H-pyrazolo[3,4-b]pyridine-5-carbonitrile] | 6 nM | 1310 nM
CCN(CC)Cc1cn(-c2cnc(-n3ncc4cc(C#N)cnc43)cc2NC(C)C)nn1 [Example 324, 1-(5-(4-((diethylamino)methyl)-1H-1,2,3-triazol-1-yl)-4-(isopropylamino)pyridin-2-yl)-1H-pyrazolo[3,4-b]pyridine-5-carbonitrile] | 18 nM | 3410 nM

Next, values leading:

IC50 (IRAK4) | EC50 [1] | SMILES
5 nM | 750 nM | CC(C)Nc1cc(-n2ncc3cc(C#N)cnc32)ncc1-c1cn([C@H]2CCN(S(C)(=O)=O)C[C@H]2OS(C)(=O)=O)nn1 [Example 182, (3R,4S)-4-(4-(6-(5-cyano-1H-pyrazolo[3,4-b]pyridin-1-yl)-4-(isopropylamino)pyridin-3-yl)-1H-1,2,3-triazol-1-yl)-1-(methylsulfonyl)piperidin-3-yl methanesulfonate]
10 nM | 520 nM | CC(C)Nc1cc(-n2ncc3cc(C#N)cnc32)ncc1-c1cn([C@H]2CCN(C(=O)c3ccccn3)C[C@H]2O)nn1 [Example 183, 1-(5-(1-((3R,4S)-3-hydroxy-1-picolinoylpiperidin-4-yl)-1H-1,2,3-triazol-4-yl)-4-(isopropylamino)pyridin-2-yl)-1H-pyrazolo[3,4-b]pyridine-5-carbonitrile]
8 nM | 1040 nM | CC(C)Nc1cc(-n2ncc3cc(C#N)cnc32)ncc1-c1cn([C@H]2CCN(C(=O)c3ccncc3)C[C@H]2O)nn1 [Example 185, 1-(5-(1-((3R,4S)-3-hydroxy-1-isonicotinoylpiperidin-4-yl)-1H-1,2,3-triazol-4-yl)-4-(isopropylamino)pyridin-2-yl)-1H-pyrazolo[3,4-b]pyridine-5-carbonitrile]
16 nM | 1780 nM | CC(C)Nc1cc(-n2ncc3cc(C#N)cnc32)ncc1-c1cn([C@@H]2CCNC[C@@H]2O)nn1 [Example 186, 1-(5-(1-((3S,4R)-3-hydroxypiperidin-4-yl)-1H-1,2,3-triazol-4-yl)-4-(isopropylamino)pyridin-2-yl)-1H-pyrazolo[3,4-b]pyridine-5-carbonitrile]
6 nM | 620 nM | CC(=O)N1CCN(C(=O)Cn2cc(-c3cnc(-n4ncc5cc(C#N)cnc54)cc3NC(C)C)nn2)CC1 [Example 194, 1-(5-(1-(2-(4-acetylpiperazin-1-yl)-2-oxoethyl)-1H-1,2,3-triazol-4-yl)-4-(isopropylamino)pyridin-2-yl)-1H-pyrazolo[3,4-b]pyridine-5-carbonitrile]
3 nM | 1400 nM | CC(C)Nc1cc(-n2ncc3cc(C#N)cnc32)ncc1-c1cn([C@H]2CC[C@H](NC(=O)OC(C)(C)C)CC2)nn1 [Example 212, tert-butyl ((trans)-4-(4-(6-(5-cyano-1H-pyrazolo[3,4-b]pyridin-1-yl)-4-(isopropylamino)pyridin-3-yl)-1H-1,2,3-triazol-1-yl)cyclohexyl)carbamate]
16 nM | 1480 nM | CC(C)Nc1cc(-n2ncc3cc(C#N)cnc32)ncc1-c1cn(CC(F)F)cn1 [Example 226, 1-(5-(1-(2,2-difluoroethyl)-1H-imidazol-4-yl)-4-(isopropylamino)pyridin-2-yl)-1H-pyrazolo[3,4-b]pyridine-5-carbonitrile]
10 nM | 590 nM | CC(C)Nc1cc(-n2ncc3cc(C#N)cnc32)ncc1-c1cn(CC2CC2)cn1 [Example 229, 1-(5-(1-(cyclopropylmethyl)-1H-imidazol-4-yl)-4-(isopropylamino)pyridin-2-yl)-1H-pyrazolo[3,4-b]pyridine-5-carbonitrile]
4 nM | 530 nM | CC(C)Nc1cc(-n2ncc3cc(C#N)cnc32)ncc1-c1cn(CC2CCC2)cn1 [Example 233, 1-(5-(1-(cyclobutylmethyl)-1H-imidazol-4-yl)-4-(isopropylamino)pyridin-2-yl)-1H-pyrazolo[3,4-b]pyridine-5-carbonitrile]
16 nM | 440 nM | CC(=O)N1CC(Cn2cnc(-c3cnc(-n4ncc5cc(C#N)cnc54)cc3NC(C)C)c2)C1 [Example 234, 1-(5-(1-((1-acetylazetidin-3-yl)methyl)-1H-imidazol-4-yl)-4-(isopropylamino)pyridin-2-yl)-1H-pyrazolo[3,4-b]pyridine-5-carbonitrile]
11 nM | 990 nM | CC(C)Nc1cc(-n2ncc3cc(C#N)cnc32)ncc1-c1cn(CC2COC2)cn1 [Example 236, 1-(4-(isopropylamino)-5-(1-(oxetan-3-ylmethyl)-1H-imidazol-4-yl)pyridin-2-yl)-1H-pyrazolo[3,4-b]pyridine-5-carbonitrile]
14 nM | 520 nM | CC(C)Nc1cc(-n2ncc3cc(C#N)cnc32)ncc1-n1cc(C2CCCC2)nn1 [Example 266, 1-(5-(4-cyclopentyl-1H-1,2,3-triazol-1-yl)-4-(isopropylamino)pyridin-2-yl)-1H-pyrazolo[3,4-b]pyridine-5-carbonitrile]
5 nM | 1780 nM | CC(C)Nc1cc(-n2ncc3cc(C#N)cnc32)ncc1-n1cc(C[C@@H](O)c2ccccc2)nn1 [Example 315, (R)-1-(5-(4-(2-hydroxy-2-phenylethyl)-1H-1,2,3-triazol-1-yl)-4-(isopropylamino)pyridin-2-yl)-1H-pyrazolo[3,4-b]pyridine-5-carbonitrile]
2 nM | 920 nM | CC(C)Nc1cc(-n2ncc3cc(C#N)cnc32)ncc1-n1cc(CCc2ccccc2)nn1 [Example 319, 1-(4-(isopropylamino)-5-(4-phenethyl-1H-1,2,3-triazol-1-yl)pyridin-2-yl)-1H-pyrazolo[3,4-b]pyridine-5-carbonitrile]

From patent publication US10294229B2, “Heteroaryl substituted aminopyridine compounds” (BRISTOL-MYERS SQUIBB COMPANY, priority 2015, dated 2019)
